What follows are compounds tested against T1, Tyrosine-protein phosphatase non-receptor type 1 (Homo sapiens, UniProt P18031) (assay: Inhibition of human recombinant PTP1B assessed as p-nitorphenol production after 30 mins).
T1 sequence (P18031 whole entry): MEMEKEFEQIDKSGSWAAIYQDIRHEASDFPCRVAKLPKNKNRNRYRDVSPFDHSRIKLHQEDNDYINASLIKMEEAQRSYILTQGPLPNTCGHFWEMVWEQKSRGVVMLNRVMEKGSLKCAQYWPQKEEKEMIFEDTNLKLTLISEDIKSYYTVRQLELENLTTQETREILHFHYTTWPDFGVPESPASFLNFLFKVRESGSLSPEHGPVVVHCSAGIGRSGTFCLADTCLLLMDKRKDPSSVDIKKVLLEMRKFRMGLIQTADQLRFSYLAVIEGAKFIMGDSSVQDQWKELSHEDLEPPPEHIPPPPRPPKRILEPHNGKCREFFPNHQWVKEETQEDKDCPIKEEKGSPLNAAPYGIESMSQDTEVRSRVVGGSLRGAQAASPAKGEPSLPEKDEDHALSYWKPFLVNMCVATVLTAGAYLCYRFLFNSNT

Row | Structure (SMILES) | IC50
1 | O=C1C[C@@H](c2ccc(O)cc2)Oc2cc(O)ccc21 [LIQUIRTIGENIN] | > 100 µM
2 | COc1ccc(C2CC(=O)c3ccc(O)cc3O2)cc1CC=C(C)C (configuration not stated) | 16.5 µM
3 | CC1(C)Oc2ccc([C@@H]3CC(=O)c4ccc(O)cc4O3)cc2CC1O (some centres not stated) [ERYTHRIBYSSIN I] | > 100 µM
4 | CC(C)=CCc1cc([C@@H]2CC(=O)c3c(O)cc(O)cc3O2)cc(CC=C(C)C)c1O [ABYSSINONE V] | 22.6 µM
5 | COc1cc(O)c(C2COc3cc(O)ccc3C2=O)cc1CC=C(C)C (configuration not stated) [PROSTRATOL C] | 17.2 µM
6 | COc1cc(OC)c([C@H]2COc3cc(O)ccc3C2=O)cc1CC=C(C)C [ERYTHRIBYSSIN E] | 15.2 µM
7 | COc1cc(O)c([C@]2(O)COc3cc(O)ccc3C2=O)cc1CC=C(C)C [ERYTHRIBYSSIN J] | 14.9 µM
8 | CC(C)=CCc1cc([C@@H]2CC(=O)c3ccc(O)cc3O2)cc2c1OC(C)(C)C=C2 [ABYSSINONES III] | 72.9 µM
9 | CC(C)=CCc1cc([C@@H]2CC(=O)c3ccc(O)cc3O2)cc2c1OC(C)(C)C(O)C2 (some centres not stated) [ERYTHRIBYSSIN G] | 35.8 µM
10 | COc1cc([C@@H]2CC(=O)c3ccc(O)cc3O2)ccc1O | 98.1 µM
11 | CC(C)=CCc1cc([C@@H]2CC(=O)c3ccc(O)cc3O2)ccc1O [ABYSSINONE II] | 29.2 µM
12 | O=Cc1cc([C@@H]2CC(=O)c3ccc(O)cc3O2)ccc1O [ERYTHRIBYSSIN K] | > 100 µM
